Patent EP1745783A1, “Substituted pyrazoline compounds, their preparation and use as medicaments” (Laboratorios del Dr. Esteve S.A., priority 2005, dated 2007)

Experiments:
[1] = tested on: cannabinoid receptors; assay: Mouse tetrad model, agonistic effect; type: in vivo, Male NMRI mice; settings: 5 mg/kg i.v., mice
Text: (§1) Substances with affinity for cannabinoid receptors are known to produce a wide range of pharmacological effects. It is also known that intravenous administration of a substance with affinity for cannabinoid receptors in mice produces analgesia , hypothermia, sedation and catalepsy. Individually, none of these effects can be considered as proof that a tested substance has affinity for cannabinoid-receptors, since all of these effects are common for various classes of centrally active agents. However, substances, which show all of these effects, i.e. substances that are active in this so-called tetrad model are considered to have affinity for the cannabinoid receptors. It has further been shown that cannabinoid receptor antagonists are higly effective in blocking the effects of a cannabinoid agonist in the mouse tetrad model.
(§2) The tetrad model is described, for example, in the publication of A. C. Howlett et al, International Union of Pharmacology XXVII. Classification of Cannabinoid Receptors, Pharmacol Rev 54, 161-202 , 2002 and David R. Compton et al., "In-vivo Characterization of a Specific Cannabinoid Receptor Antagonist (SR141716A) :Inhibition of Tetrahydrocannbinol- induced Responses and Apparent Agonist Activity", J. Pharmacol. Exp. Ther. 277 , 2, 586-594, 1996. The corresponding parts of the description are hereby incorporated by reference. […]
(§3) Before testing in the behavioral procedures given below, mice are acclimatized to the experimental setting. Pre-Treatment control values are determined for analgesia hot plate latency (in seconds), rectal temperature, sedation and catalepsy.
In order to determine the agonistic activty of the substance to be tested, the mice are injected intravenously with the substance to be tested or the vehicle alone. 15 minutes after injection, latency in hot plate analgesia is measured. Rectal temperature, sedation and catalepsy are measured 20 minutes after injection.
(§4) The hot plate analgesia is determined according to the method described in Woolfe D. et al. "The evaluation of analgesic action of pethidine hydrochloride (Demerol)", J. Pharmacol. Exp. Ther. 80, 300-307,1944. […]
(§5) The mice are placed on a hot plate (Harvard Analgesimeter) at 55 ± 0.5 °C until they show a painful sensation by licking their paws or jumping and the time for these sensations to occur is recorded. This reading is considered the basal value (B). […]
(§6) Fifteen minuts after the administration of the substance to be tested, the mice are again placed on the hot plate and the afore described procedure is repeated. This period is called the post-treatment reading (PT).
(§7) The degree of analgesia is calculated from the formula : %MPE of Analgesia = (PT-B)/(PC-B) × 100 [formula] […]

[2] = tested on: cannabinoid receptors; assay: Mouse tetrad model, antagonistic effect against Win 55212-2; type: in vivo, Male NMRI mice; settings: 5 mg/kg i.v. prior to Win 55212-2 in a dose of 1,25mg/kg i.v., mice
Text: as §1, §2, §3
In order to determine the antagonistic activity the identical procedure is used as for the determination of the agonistic effects, but with the difference that the substance to be evaluated for its antagonistic activity is injectected 5 minutes before the intravenous injection of 1.25 mg/kg Win-55,212 a known cannabinoid-receptor agonist.
as §4, §5, §6, §7

O=C(NN1CCCCC1)C1=NN(c2ccc(Cl)cc2Cl)C(c2ccc(Cl)cc2)C1 (centres unmarked) [Example 1, N-piperidinyl-5-(4-chlorophenyl)-1-(2,4-dichlorophenyl)-4,5-dihydro-1H-pyrazole-3-carboxamide]
Agonistic effect A: Hot-Plate test [1]: 0
Agonistic effect B: Hypothermia [1]: 0
Agonistic effect C: Catalepsy [1]: 0
Agonistic effect D: Sedation [1]: 0
Antagonistic Effect A: Hot-Plate test [2]: 74
Antagonistic Effect B: Hypothermia [2]: 100
Antagonistic Effect C: Catalepsy [2]: 100
Antagonistic Effect D: Sedation [2]: 100
